# Entries after “also recorded” stand apart in the source; their conditions may differ.
# Tests used:
# [1] = cited from earlier work
# [2] = Part I dose escalation to define MTD and DLTs of lapatinib plus everolimus; format: in vivo, human; settings: once daily po
# [3] = Phase I/II trial of everolimus and imatinib; cited from earlier work
# [4] = Steady-state everolimus PK in whole blood, alone and with lapatinib; format: in vivo, human; settings: for Everolimus Tmax % change: p=0.06; for Tmax: Everolimus Tmax, mean (95% CI)
# [5] = test system: ER-positive breast cancer; settings: ER-positive patients with breast cancer; cited from earlier work
# [6] = Steady-state lapatinib PK in plasma, alone and with everolimus
# [7] = Day 19 with lapatinib vs Day 7 alone
# [8] = Day 19 with everolimus vs Day 7 alone
structure (smiles),measurement,setting,value
C#Cc1cccc(Nc2ncnc3cc(OCCOC)c(OCCOC)cc23)c1 [erlotinib],Pharmacokinetics of erlotinib with or without everolimus,[1],similar
CO[C@H]1C[C@@H]2CC[C@@H](C)[C@@](O)(O2)C(=O)C(=O)N2CCCC[C@H]2C(=O)O[C@H]([C@H](C)C[C@@H]2CC[C@@H](OCCO)[C@H](OC)C2)CC(=O)[C@H](C)/C=C(\C)[C@@H](O)[C@@H](OC)C(=O)[C@H](C)C[C@H](C)/C=C/C=C/C=C/1C [everolimus],Maximum tolerated dose (MTD) of everolimus in the combination,[2]; combined with lapatinib 1250 mg,5 mg
same,Increase of everolimus Cmax by imatinib,[3],2.2 fold
same,Increase of everolimus mean AUC by imatinib,[3],3.7 fold
same,Everolimus AUC 0-inf % change,[4]; [7],+26%
same,Everolimus Cmax % change,[4]; [7],−5%
same,Everolimus Tmax % change,[4]; [7],44%
same,Everolimus Tmax % change,"[4]; Day 19 with lapatinib vs Day 7 alone, listed as Everolimus",+44%
same,Mean everolimus CL/F at steady-state,[4]; alone,19 (95% CI 14–24) L/hr
same,AUC,"[4]; human, whole blood, oral, 5 mg",348 ng·h/mL
same,AUC(0-inf),"[4]; human, whole blood, oral, 5 mg",348 ng·h/mL
same,Cmax,"[4]; human, whole blood, oral, 5 mg",37 ng/mL
same,Tmax,"[4]; human, whole blood, oral, 5 mg, Day 7, everolimus alone",1.6 h
same,Tmax,"[4]; human, whole blood, oral, Day 19, everolimus + lapatinib",2.3 h
same,Mean everolimus CL/F at steady-state,[4]; in combination with lapatinib,14 (95% CI 11–18) L/hr
same,Decrease of mean everolimus CL/F,"[4]; in combination with lapatinib vs alone, p=0.08",25%
same,PK differences when everolimus was given in combination with lapatinib,[4]; paired t-test,did not reach statistical significance
same,"Systemic exposure to everolimus, higher with erlotinib than without",[1],17%
C=C1C[C@@H]2[C@H](CC[C@]3(C)C(=O)CC[C@@H]23)[C@@]2(C)C=CC(=O)C=C12 [exemestane],Progression-free survival,[5],2.8 months
CS(=O)(=O)CCNCc1ccc(-c2ccc3ncnc(Nc4ccc(OCc5cccc(F)c5)c(Cl)c4)c3c2)o1 [lapatinib],Maximum tolerated dose (MTD) of lapatinib in the combination,[2]; combined with everolimus 5 mg,1250 mg
same,Lapatinib Cmax,"[6]; Day 19, lapatinib + everolimus, steady state, plasma, mean (95% CI)",2520 (2020–3130) μg/L
same,Lapatinib AUC 0-inf % change,[6]; [8],essentially unchanged
same,Lapatinib Cmax % change,[6]; [8],+7%
same,Lapatinib Tmax % change,[6]; [8],+33%
same,Lapatinib AUC 0-inf % change,"[6]; Day 19 with everolimus vs Day 7 alone, listed as Lapatinib",+10%
same,Mean lapatinib Ctrough at steady-state,[6]; alone,800 (95% CI 600–1120) μg/L
same,AUC,"[6]; human, plasma, oral",33900 ng·h/mL
same,AUC,"[6]; human, plasma, oral, 1250 mg",37400 ng·h/mL
same,AUC(0-inf),"[6]; human, plasma, oral, 1250 mg",33900 ng·h/mL
same,Mean lapatinib Ctrough at steady-state,[6]; in combination with everolimus,1060 (95% CI 760–1470) μg/L
same,Differences in steady-state lapatinib PK with or without everolimus co-administration,[6]; paired t-test,no significant influence; also recorded: not statistically significant

# — publication PMC4072025 (Cancer chemotherapy and pharmacology, 2013)
